Results taken from patent US6737383B1, “Herbicidal oxadiazolidines” (priority 1999, dated 2004).

Legend:
surinam grass = test: Test B pre/postemergence surinam grass; format: in vivo, Brachiaria decumbens
Method in brief: (§1)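 Test chemicals in a non-phytotoxic solvent mixture with surfactant were sprayed preemergence onto planted seeds and postemergence onto plants 2 to 18 cm tall (1- to 4-leaf stage). After twelve to sixteen days in a greenhouse, injury was visually rated against untreated controls from 0 (no effect) to 10 (complete control).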

blackgrass = test: Test B pre/postemergence blackgrass; format: in vivo, Alopecurus myosuroides
Method in brief: as §1

rice = test: Test B flood test rice; format: in vivo, Oryza sativa
Method in brief: (§2)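 Each value is a visual injury score relative to controls, with 10 meaning complete control and 0 no effect. Evaluation took place twelve to sixteen days after the 2-leaf-stage plants were treated and kept in the greenhouse.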

smallflower flatsedge = test: Test B flood test smallflower flatsedge; format: in vivo, Cyperus difformis
Method in brief: as §2

rape = test: Test B pre/postemergence rape; format: in vivo, Brassica napus
Method in brief: as §1

cocklebur = test: Test B pre/postemergence cocklebur; format: in vivo, Xanthium strumarium
Method in brief: as §1

bamyardgrass = test: Test B flood test barnyardgrass; format: in vivo, Echinochloa crus-galli
Method in brief: as §2

morningglory = test: Test B pre/postemergence morningglory; format: in vivo, Ipomoea hederacea
Method in brief: as §1

pigweed = test: Test B pre/postemergence pigweed; format: in vivo, Amaranthus retroflexus
Method in brief: as §1

purple nutsedge = test: Test B pre/postemergence purple nutsedge; format: in vivo, Cyperus rotundus
Method in brief: as §1

wild oat = test: Test B pre/postemergence wild oat; format: in vivo, Avena fatua
Method in brief: as §1

velvetleaf = test: Test B pre/postemergence velvetleaf; format: in vivo, Abutilon theophrasti
Method in brief: as §1

soybean = test: Test B pre/postemergence soybean; format: in vivo, Glycine max
Method in brief: as §1

sugar beet = test: Test B pre/postemergence sugar beet; format: in vivo, Beta vulgaris
Method in brief: as §1

corn = test: Test B pre/postemergence corn; format: in vivo, Zea mays
Method in brief: as §1

bedstraw = test: Test B pre/postemergence bedstraw; format: in vivo, Galium aparine
Method in brief: as §1

[1] = Postemergence, Rate 125 g/ha, scale of 0 to 10 where 0 is no effect and 10 is complete control
[2] = Preemergence, Rate 62 g/ha, scale 0 to 10 (0 no effect, 10 complete control)
[3] = Preemergence, Rate 125 g/ha, 0 is no effect, 10 is complete control
[4] = Preemergence, Rate 250 g/ha, scale 0 to 10, 0 is no effect, 10 is complete control
[5] = Preemergence, Rate 500 g/ha, scale 0 to 10 (0 no effect, 10 complete control)
[6] = Rate 62 g/ha, Postemergence, scale of 0 to 10 where 0 is no effect and 10 is complete control
[7] = Rate 250 g/ha, Postemergence, scale 0 to 10, 0 is no effect, 10 is complete control
[8] = Rate 500 g/ha, Postemergence, scale 0 to 10
[9] = Postemergence (flood test species), Rate 125 g/ha, scale of 0 to 10 where 0 is no effect and 10 is complete control
[10] = Rate 62 g/ha, Postemergence section, flood test species, scale of 0 to 10 where 0 is no effect and 10 is complete control
[11] = Rate 250 g/ha, Postemergence (flood test), scale 0 to 10, 0 is no effect, 10 is complete control
[12] = Rate 500 g/ha, listed under Postemergence (flood test species), scale 0 to 10

With `CC(C)N(C(=O)n1oc(=O)n(CCCl)c1=O)c1ccc(F)cc1` [Compound 148] the “B. signalgrass plant response rating” value (surinam grass; [1]) was 3, the “B. signalgrass plant response rating” value (surinam grass; [2]) was 0 and the “B. signalgrass plant response rating (0 to 10 scale)” value (surinam grass; [3]) was 5. For the same compound, the “B. signalgrass plant response rating” value (surinam grass; [4]) was 7, the “B. signalgrass plant response rating” value (surinam grass; [5]) was 7 and the “B. signalgrass plant response rating” value (surinam grass; [6]) was 0. The “Plant response rating, B. signalgrass” value (surinam grass; [7]) was 5, the “B. signalgrass plant response rating” value (surinam grass; Rate 500 g/ha, Postemergence, scale of 0 to 10 where 0 is no effect and 10 is complete control) was 7 and the “Blackgrass plant response rating” value (blackgrass; [1]) was 7. For the same compound, the “Blackgrass plant response rating” value (blackgrass; [2]) was 4, the “Blackgrass plant response rating (0 to 10 scale)” value (blackgrass; [3]) was 4 and the “Blackgrass plant response rating” value (blackgrass; [4]) was 7. The “Blackgrass plant response rating” value (blackgrass; [5]) was 9, the “Blackgrass plant response rating” value (blackgrass; [6]) was 5 and the “Plant response rating, Blackgrass” value (blackgrass; [7]) was 7. For the same compound, the “Blackgrass plant response rating” value (blackgrass; [8]) was 7, the “Rice plant response rating” value (rice; [9]) was 0 and the “Rice plant response rating” value (rice; [10]) was 0. For the same compound, the “Plant response rating, Rice” value (rice; [11]) was 0, the “Rice plant response rating” value (rice; [12]) was 0 and the “S. Flatsedge plant response rating” value (smallflower flatsedge; [9]) was 0. The “S. Flatsedge plant response rating” value (smallflower flatsedge; [10]) was 0, the “Plant response rating, S. Flatsedge” value (smallflower flatsedge; [11]) was 0 and the “S. Flatsedge plant response rating” value (smallflower flatsedge; [12]) was 2. The “Rape plant response rating” value (rape; [1]) was 2, the “Rape plant response rating” value (rape; [2]) was 0 and the “Rape plant response rating (0 to 10 scale)” value (rape; [3]) was 0. The “Rape plant response rating” value (rape; [4]) was 6, the “Rape plant response rating” value (rape; [5]) was 9 and the “Rape plant response rating” value (rape; [6]) was 1. The “Plant response rating, Rape” value (rape; [7]) was 3, the “Rape plant response rating” value (rape; [8]) was 4 and the “Cocklebur plant response rating” value (cocklebur; [1]) was 0. The “Cocklebur plant response rating (0 to 10 scale)” value (cocklebur; [3]) was 0, the “Cocklebur plant response rating” value (cocklebur; [4]) was 0 and the “Cocklebur plant response rating” value (cocklebur; [5]) was 0. The “Cocklebur plant response rating” value (cocklebur; [6]) was 0, the “Plant response rating, Cocklebur” value (cocklebur; [7]) was 0 and the “Cocklebur plant response rating” value (cocklebur; [8]) was 3. The “Barnyardgrass plant response rating” value (bamyardgrass; [9]) was 0, the “Barnyardgrass plant response rating” value (bamyardgrass; [10]) was 0 and the “Plant response rating, Barnyardgrass” value (bamyardgrass; [11]) was 0. The “Barnyardgrass plant response rating” value (bamyardgrass; Rate 500 g/ha, listed under Postemergence (flood test species), scale 0 to 10, 0 no effect, 10 complete control) was 4, the “Morningglory plant response rating” value (morningglory; [1]) was 3 and the “Morningglory plant response rating” value (morningglory; [2]) was 0. The “Morningglory plant response rating (0 to 10 scale)” value (morningglory; [3]) was 0, the “Morningglory plant response rating” value (morningglory; [4]) was 0 and the “Morningglory plant response rating” value (morningglory; [5]) was 1. The “Morningglory plant response rating” value (morningglory; [6]) was 3, the “Plant response rating, Morningglory” value (morningglory; [7]) was 3 and the “Morningglory plant response rating” value (morningglory; [8]) was 5. For the same compound, the “Redroot pigweed plant response rating” value (pigweed; [1]) was 2, the “Redroot pigweed plant response rating” value (pigweed; [2]) was 7 and the “Redroot pigweed plant response rating (0 to 10 scale)” value (pigweed; [3]) was 9. For the same compound, the “Redroot pigweed plant response rating” value (pigweed; [4]) was 9, the “Redroot pigweed plant response rating” value (pigweed; [5]) was 10 and the “Redroot pigweed plant response rating” value (pigweed; [6]) was 2. For the same compound, the “Redroot pigweed plant response rating” value (pigweed; [8]) was 5, the “Nutsedge plant response rating” value (purple nutsedge; [1]) was 0 and the “Nutsedge plant response rating” value (purple nutsedge; [2]) was 0. For the same compound, the “Nutsedge plant response rating (0 to 10 scale)” value (purple nutsedge; [3]) was 0, the “Nutsedge plant response rating” value (purple nutsedge; [4]) was 0 and the “Nutsedge plant response rating” value (purple nutsedge; [5]) was 0. The “Nutsedge plant response rating” value (purple nutsedge; [6]) was 0, the “Plant response rating, Nutsedge” value (purple nutsedge; [7]) was 0 and the “Nutsedge plant response rating” value (purple nutsedge; [8]) was 0. The “Wild oats plant response rating” value (wild oat; [1]) was 1, the “Wild oats plant response rating” value (wild oat; [2]) was 6 and the “Wild oats plant response rating (0 to 10 scale)” value (wild oat; [3]) was 6. For the same compound, the “Wild oats plant response rating” value (wild oat; [4]) was 6, the “Wild oats plant response rating” value (wild oat; [5]) was 8 and the “Wild oats plant response rating” value (wild oat; [6]) was 0. The “Plant response rating, Wild oats” value (wild oat; [7]) was 5, the “Wild oats plant response rating” value (wild oat; [8]) was 5 and the “Velvetleaf plant response rating” value (velvetleaf; [1]) was 0. The “Velvetleaf plant response rating” value (velvetleaf; [2]) was 0, the “Velvetleaf plant response rating (0 to 10 scale)” value (velvetleaf; [3]) was 6 and the “Velvetleaf plant response rating” value (velvetleaf; [4]) was 8. For the same compound, the “Velvetleaf plant response rating” value (velvetleaf; [5]) was 8, the “Velvetleaf plant response rating” value (velvetleaf; [6]) was 0 and the “Plant response rating, Velvetleaf” value (velvetleaf; [7]) was 0. For the same compound, the “Velvetleaf plant response rating” value (velvetleaf; [8]) was 1, the “Soybean plant response rating” value (soybean; [1]) was 4 and the “Soybean plant response rating” value (soybean; [2]) was 0. The “Soybean plant response rating (0 to 10 scale)” value (soybean; [3]) was 0, the “Soybean plant response rating” value (soybean; [4]) was 0 and the “Soybean plant response rating” value (soybean; [5]) was 0. The “Soybean plant response rating” value (soybean; [6]) was 4, the “Plant response rating, Soybean” value (soybean; [7]) was 4 and the “Soybean plant response rating” value (soybean; [8]) was 5. The “Sugarbeets plant response rating” value (sugar beet; [1]) was 3, the “Sugarbeets plant response rating” value (sugar beet; [2]) was 4 and the “Sugarbeets plant response rating (0 to 10 scale)” value (sugar beet; [3]) was 6. For the same compound, the “Sugarbeets plant response rating” value (sugar beet; [4]) was 8, the “Sugarbeets plant response rating” value (sugar beet; [5]) was 10 and the “Sugarbeets plant response rating” value (sugar beet; [6]) was 2. For the same compound, the “Plant response rating, Sugarbeets” value (sugar beet; [7]) was 4, the “Sugarbeets plant response rating” value (sugar beet; [8]) was 4 and the “Corn plant response rating” value (corn; [1]) was 0. The “Corn plant response rating” value (corn; [2]) was 0, the “Corn plant response rating (0 to 10 scale)” value (corn; [3]) was 0 and the “Corn plant response rating” value (corn; [4]) was 0. For the same compound, the “Corn plant response rating” value (corn; [5]) was 0, the “Corn plant response rating” value (corn; [6]) was 0 and the “Plant response rating, Corn” value (corn; [7]) was 0. The “Corn plant response rating” value (corn; [8]) was 0, the “Bedstraw plant response rating” value (bedstraw; [1]) was 5 and the “Bedstraw plant response rating” value (bedstraw; [2]) was 0. The “Bedstraw plant response rating (0 to 10 scale)” value (bedstraw; [3]) was 0, the “Bedstraw plant response rating” value (bedstraw; [4]) was 0 and the “Bedstraw plant response rating” value (bedstraw; [5]) was 2. For the same compound, the “Bedstraw plant response rating” value (bedstraw; [6]) was 2, the “Plant response rating, Bedstraw” value (bedstraw; [7]) was 6 and the “Bedstraw plant response rating” value (bedstraw; Rate 500 g/ha, Postemergence, scale 0 to 10, 0 no effect, 10 complete control) was 6.
